Patent EP0120304A2, “Substituted 4,10-dihydro-10-oxothieno benzoxepins and intermediates thereof, a process for their preparation and their use as medicaments” (HOECHST-ROUSSEL PHARMACEUTICALS INCORPORATED, priority 1983, dated 1984)
Like-named read-outs stand apart in the source and are kept apart here.

What was measured:
[1] = system: 2-phenyl-1,4-benzoquinone-induced writhing; test: 2-phenyl-1,4-benzoquinone-induced writhing test (analgesia); type: in vivo, mice; settings: for ED50: Mus musculus, po
Excerpt: Compounds of the present invention are also useful as analgesic agents due to their ability to alleviate pain in mammals.

[2] = system: rat paw edema; test: carrageenin induced rat paw edema anti-inflammatory assay; type: in vivo; settings: for ED50: Rattus norvegicus

Molecule CC(C)Cc1ccc(C(C)C(=O)O)cc1 (stereo not shown) [ibuprofen, reference compound] has an ED50 ([1]; orally, in a similar test, read-out: analgesic ED50) of 10.4 mg/kg.

For O=C1c2cc(CCO)ccc2OCc2ccsc21 [(4,10-Dihydro-10-oxothieno[3,2-c][1]benzoxepin-8-yl) ethanol], the “ED50 (mg/kg; 120 min.)” value [2] was 34.2 mg/kg and the “ED50 (mg/kg; p.o.)” value ([1]; p.o., Phenylquinone Writhing) was 19.7 mg/kg.

In the case of CC(=O)OCCc1ccc2c(c1)C(=O)c1sccc1CO2 [2-(4,10-Dihydro-10-oxothieno[3,2-c][1]benzoxepin-8-yl) ethyl acetate], the “ED50 (mg/kg; 120 min.)” value [2] was 11.4 mg/kg.

With CC(CO)c1ccc2c(c1)C(=O)c1sccc1CO2 (racemic) [(±)-2-(4,10-Dihydro-10-oxothieno[3,2-c][1]benzoxepin-8-yl)propanol] the ED50 ([2]; 2 h, read-out: ED50 (mg/kg; 120 min.)) was 4.3 mg/kg and the ED50 ([1]; Phenylquinone Writhing, read-out: ED50 (mg/kg; p.o.)) was 4.3 mg/kg.

With COc1ccc2c(c1)c(CC(=O)O)c(C)n2C(=O)c1ccc(Cl)cc1 [indomethacin, reference compound] the ED50 ([2]; po, read-out: anti-inflammatory ED50) was 6 mg/kg.
